Experiments:
SU-DHL-1 tumor cells = test: Xenograph tumor study, SU-DHL-1; type: in vivo, NOD SCID mice; settings: SUDHL-1 xenograph, 2.5-30 mg/kg, 2 days on/5 days off
Description: Animals: 50 6-8 week old female NOD SCID mice weighing 18 to 20 grams. 25 mice were used in each study.
Method for Tumor Inoculation: Each mouse was inoculated subcutaneously with SU-DHL-1 tumor cells (1×107+Matrigel) or SUP-M2 tumor cells (5×106+Matrigel) in 0.1 ml of RPMI1640 medium supplemented with 10% FBS, 100 U/ml penicillin and […] streptomycin for tumor development. Mice were then assigned to groups such that the mean tumor volume was the same for each treatment group and time point. […] Vehicle was 25% HP-β-CD in water adjusted to pH 7.4.
Measurement Parameters: Study animals were monitored not only for tumor growth but also behavior such as mobility, food and water consumption (by cage side checking only), body weight (BW), eye/hair matting and any other abnormal effect. Any mortality and/or abnormal clinical signs was recorded. Sponsor was notified immediately if abnormal clinical signs, or if tolerability issues were observed. Body weights of all animals were measured and recorded twice per week. The measurement of tumor size was conducted twice weekly with a caliper and recorded. The tumor volume (mm3) was estimated using the formula: TV=a×b2/2, where “a” and “b” are long and short diameters of a tumor, respectively.

STAT3 = STAT3 (Homo sapiens, UniProt P40763); test: STAT3 HiBiT degradation assay in transfected A549 cells; type: cell-based; design: expressed in transfected cells; host or cells: A549; settings: A549, 24 h; read-out: STAT3 HiBiT A549 degradation 24 h: Average external-Abs DC50
Outline: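 Degradation read as HiBiT-tagged STAT3 luminescence (Nano-Glo lytic reagent, 10 min, room temperature) following 24 h compound treatment of transfected A549 cells at 3-fold, 10 points. Percent remaining signal computed against controls and fitted with a four-parameter logistic; DC50 reported as letter bins (A <0.01 to D >1.0 µM).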

Sequence of STAT3 (P40763 whole entry): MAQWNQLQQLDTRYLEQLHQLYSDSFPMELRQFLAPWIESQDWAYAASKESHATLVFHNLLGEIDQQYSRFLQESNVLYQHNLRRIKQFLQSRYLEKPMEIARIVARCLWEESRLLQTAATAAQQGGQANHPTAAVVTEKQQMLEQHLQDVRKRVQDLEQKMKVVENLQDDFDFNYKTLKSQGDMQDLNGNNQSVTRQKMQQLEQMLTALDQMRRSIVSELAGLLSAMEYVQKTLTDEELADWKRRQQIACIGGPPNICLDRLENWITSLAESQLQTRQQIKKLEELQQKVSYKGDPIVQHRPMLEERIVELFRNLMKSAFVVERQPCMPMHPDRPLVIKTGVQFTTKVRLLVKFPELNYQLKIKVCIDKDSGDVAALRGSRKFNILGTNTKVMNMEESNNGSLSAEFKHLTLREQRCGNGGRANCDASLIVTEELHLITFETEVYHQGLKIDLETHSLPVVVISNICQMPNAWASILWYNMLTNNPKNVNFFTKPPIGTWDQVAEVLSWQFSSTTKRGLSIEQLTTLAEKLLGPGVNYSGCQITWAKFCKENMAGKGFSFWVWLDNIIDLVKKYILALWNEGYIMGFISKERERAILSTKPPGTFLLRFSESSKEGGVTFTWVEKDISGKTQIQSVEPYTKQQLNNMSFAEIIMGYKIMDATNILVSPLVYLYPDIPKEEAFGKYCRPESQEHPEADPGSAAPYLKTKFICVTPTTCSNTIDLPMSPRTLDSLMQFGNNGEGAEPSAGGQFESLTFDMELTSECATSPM

Q: For CC(=O)N1CC[C@H]2CC[C@@H](C(=O)N[C@@H](CCC(N)=O)COc3cccc(CCCCC(=O)N[C@H](C(=O)N4C[C@H](O)C[C@H]4C(=O)N[C@@H](C)c4ccc(-c5scnc5C)cc4)C(C)(C)C)c3Cl)N2C(=O)[C@@H](NC(=O)c2cc3cc(C(=O)P(=O)(O)O)ccc3[nH]2)C1 [Compound I-233, diammonium 2-[[(5S,8S,10aR)-3-acetyl-8-[[(2S)-4-carbamoyl-1-[2-chloro-3-(4-[[(2S)-1-[(2S,4R)-4-hydroxy-2-[[(1S)-1-[4-(4-methyl-1,3-thiazol-5-yl)phenyl]ethyl]carbamoyl]pyrrolidin-1-yl]-3,3-dimethyl-1-oxobutan-2-yl]carbamoyl]butyl)phenoxy]butan-2-yl]carbamoyl]-6-oxo-octahydropyrrolo[l,2-a][1,5]diazocin-5-yl]carbamoyl]-1H-indole-5-carbonylphosphonate], which “tumor volume, 5 days” value (SU-DHL-1 tumor cells; IV) is on record?
A: A (A<500 mm^3)

Q: What about the “tumor volume, 10 days” value (SU-DHL-1 tumor cells; IV) of the same compound?
A: A (A<500 mm^3)

Q: And the “tumor volume, 15 days” value (SU-DHL-1 tumor cells; IV)?
A: A (A<500 mm^3)

Q: And the “tumor volume, 20 days” value (SU-DHL-1 tumor cells; IV)?
A: A (A<500 mm^3)

Q: What about the DC50 (STAT3) of the same compound?
A: < 10 nM

Q: CC(C)c1ccc(CNC(=O)[C@H](CCC(N)=O)NC(=O)[C@@H]2CC[C@@H]3CCN(C(=O)C[C@H]4CC[C@@H](Cc5ccc6c(c5)n(C)c(=O)n6C5CCC(=O)NC5=O)CC4)C[C@H](NC(=O)c4cc5cc(C(=O)P(=O)(O)O)ccc5[nH]4)C(=O)N32)cc1 (stereo partly drawn) [Compound I-196, 2-[[(5S,8S,10aR)-8-[[(1S)-3-carbamoyl-1-[[(4-isopropylphenyl)methyl]carbamoyl]propyl]carbamoyl]-6-oxo-3-[2-[(1S,4S)-4-[[1-(2,6-dioxopiperidin-3-yl)-3-methyl-2-oxo-1,3-benzodiazol-5-yl]methyl]cyclohexyl]acetyl]-octahydropyrrolo[1,2-a][1,5]diazocin-5-yl]carbamoyl]-1H-indole-5-carbonylphosphonic acid] was tested. Which “tumor volume, 5 days” value (SU-DHL-1 tumor cells; IP) did it give?
A: A (A<500 mm^3)

Q: And the “tumor volume, 10 days” value (SU-DHL-1 tumor cells; IP)?
A: A (A<500 mm^3)

Q: And the “tumor volume, 15 days” value (SU-DHL-1 tumor cells; IP)?
A: A (A<500 mm^3)

Q: What about the “tumor volume, 20 days” value (SU-DHL-1 tumor cells; IP) of the same compound?
A: A (A<500 mm^3)

Q: What about the DC50 (STAT3) of the same compound?
A: 10 to 100 nM

Q: For Cc1ncsc1-c1ccc([C@H](C)NC(=O)[C@@H]2C[C@@H](O)CN2C(=O)[C@@H](NC(=O)CCCc2cccc(OC[C@H](CCC(N)=O)NC(=O)[C@@H]3Cc4cccc5c4N3C(=O)[C@@H](NC(=O)c3cc4cc(C(=O)P(=O)(O)O)ccc4[nH]3)CC5)c2F)C(C)(C)C)cc1 [Compound I-261, 2-[[(2S,11S)-2-[[(2S)-4-carbamoyl-1-[2-fluoro-3-(3-[[(2S)-1-[(2S,4R)-4-hydroxy-2-[[(1S)-1-[4-(4-methyl-1,3-thiazol-5-yl)phenyl]ethyl]carbamoyl]pyrrolidin-1-yl]-3,3-dimethyl-1-oxobutan-2-yl]carbamoyl]propyl)phenoxy]butan-2-yl]carbamoyl]-12-oxo-1-azatricyclo[6.4.1.0^[4,13]]trideca-4(13),5,7-trien-11-yl]carbamoyl]-1H-indole-5-carbonylphosphonic acid], which “tumor volume, 5 days” value (SU-DHL-1 tumor cells; IP) is on record?
A: A (A<500 mm^3)

Q: What about the “tumor volume, 10 days” value (SU-DHL-1 tumor cells; IP) of the same compound?
A: A (A<500 mm^3)

Q: What about the “tumor volume, 15 days” value (SU-DHL-1 tumor cells; IP) of the same compound?
A: A (A<500 mm^3)

Q: What about the “tumor volume, 20 days” value (SU-DHL-1 tumor cells; IP) of the same compound?
A: A (A<500 mm^3)

Q: What about the DC50 (STAT3) of the same compound?
A: < 10 nM

Q: Cn1c(=O)n(C2CCC(=O)NC2=O)c2ccc(C[C@H]3CC[C@@H](CC(=O)N4CC[C@H]5CC[C@@H](C(=O)N[C@@H](CCC(N)=O)C(=O)NCc6ccc(S(C)(=O)=O)cc6)N5C(=O)[C@@H](NC(=O)c5cc6cc(C(=O)P(=O)(O)O)ccc6[nH]5)C4)CC3)cc21 (stereo partly drawn) [Compound I-195, 2-[[(5S,8S,10aR)-8-[[(1S)-3-carbamoyl-1-[[(4-methanesulfonylphenyl)methyl]carbamoyl]propyl]carbamoyl]-6-oxo-3-[2-[(1S,4S)-4-[[1-(2,6-dioxopiperidin-3-yl)-3-methyl-2-oxo-1,3-benzodiazol-5-yl]methyl]cyclohexyl]acetyl]-octahydropyrrolo[1,2-a][1,5]diazocin-5-yl]carbamoyl]-1H-indole-5-carbonylphosphonic acid] was tested. Which “tumor volume, 5 days” value (SU-DHL-1 tumor cells; IP) did it give?
A: A (A<500 mm^3)

Q: What about the “tumor volume, 10 days” value (SU-DHL-1 tumor cells; IP) of the same compound?
A: A (A<500 mm^3)

Q: What about the “tumor volume, 15 days” value (SU-DHL-1 tumor cells; IP) of the same compound?
A: A (A<500 mm^3)

Q: What about the “tumor volume, 20 days” value (SU-DHL-1 tumor cells; IP) of the same compound?
A: A (A<500 mm^3)

Q: What about the DC50 (STAT3) of the same compound?
A: 10 to 100 nM

Q: Which “tumor volume, 5 days” value (SU-DHL-1 tumor cells; IV) does the source give for CC(=O)N1CC[C@H]2CC[C@@H](C(=O)N[C@@H](CCC(N)=O)COc3cc(C)cc(CCCCCC(=O)N[C@H](C(=O)N4C[C@H](O)C[C@H]4C(=O)N[C@@H](C)c4ccc(-c5scnc5C)cc4)C(C)(C)C)c3F)N2C(=O)[C@@H](NC(=O)c2cc3cc(C(=O)P(=O)(O)O)ccc3[nH]2)C1 [Compound I-262, 2-[[(5S,8S,10aR)-3-acetyl-8-[[(2S)-4-carbamoyl-1-[2-fluoro-3-(5-[[(2S)-1-[(2S,4R)-4-hydroxy-2-[[(1S)-1-[4-(4-methyl-1,3-thiazol-5-yl)phenyl]ethyl]carbamoyl]pyrrolidin-1-yl]-3,3-dimethyl-1-oxobutan-2-yl]carbamoyl]pentyl)-5-methylphenoxy]butan-2-yl]carbamoyl]-6-oxo-octahydropyrrolo[1,2-a][1,5]diazocin-5-yl]carbamoyl]-1H-indole-5-carbonylphosphonic acid] here?
A: A (A<500 mm^3)

Q: And the “tumor volume, 10 days” value (SU-DHL-1 tumor cells; IV)?
A: A (A<500 mm^3)

Q: And the “tumor volume, 15 days” value (SU-DHL-1 tumor cells; IV)?
A: A (A<500 mm^3)

Q: What about the “tumor volume, 20 days” value (SU-DHL-1 tumor cells; IV) of the same compound?
A: A (A<500 mm^3)

Q: What about the DC50 (STAT3) of the same compound?
A: < 10 nM

Q: Which results are given for CC(=O)N1CC[C@H]2CC[C@@H](C(=O)N[C@@H](CCC(N)=O)COc3cccc(CCCC(=O)N[C@H](C(=O)N4C[C@H](O)C[C@H]4C(=O)N[C@@H](C)c4ccc(-c5scnc5C)cc4)C(C)(C)C)c3Cl)N2C(=O)[C@@H](NC(=O)c2cc3cc(C(=O)P(=O)(O)O)ccc3[nH]2)C1 [Compound I-241, diammonium 2-[[(5S,8S,10aR)-3-acetyl-8-[[(2S)-4-carbamoyl-1-[2-chloro-3-(3-[[(2S)-1-[(2S,4R)-4-hydroxy-2-[[(1S)-1-[4-(4-methyl-1,3-thiazol-5-yl)phenyl]ethyl]carbamoyl]pyrrolidin-1-yl]-3,3-dimethyl-1-oxobutan-2-yl]carbamoyl]propyl)henoxy]butan-2-yl]carbamoyl]-6-oxo-octahydropyrrolo[1,2-a][1,5]diazocin-5-yl]carbamoyl]-1H-indole-5-carbonylphosphonate]?
A: tumor volume, 5 days (SU-DHL-1 tumor cells; IV): A (A<500 mm^3); tumor volume, 10 days (SU-DHL-1 tumor cells; IV): A (A<500 mm^3); tumor volume, 15 days (SU-DHL-1 tumor cells; IV): A (A<500 mm^3); tumor volume, 20 days (SU-DHL-1 tumor cells; IV): A (A<500 mm^3); DC50 (STAT3): < 10 nM

From US12077555B2, “STAT degraders and uses thereof” (Kymera Therapeutics, Inc., priority 2019, dated 2024)
